Measured values reported in patent US9072919B2, “Synergistic antioxidant cosmetic compositions containing at least one of baicalin and taxifolin, at least one of caffeine and nicotinamide, at least one of vitamin C and resveratrol and ferulic acid” (priority 2012, dated 2015).

Experiments:
[1] = Oxygen radical absorbance capacity assay (ORAC); type: biochemical; conditions: tested both individually and in solution
Experimental: Azo-initiators are considered to produce the peroxyl radical by heating, which damages the fluorescent molecule, resulting in the loss of fluorescence. Antioxidants are considered to protect the fluorescent molecule from the oxidative degeneration. By quantifying the decay of fluorescence using a fluorometer, the degree of protection is determined comparing with a standard control antioxidant Trolox. […] Equipment that can automatically measure and calculate the capacity is commercially available, such as the VarioSkan flash microplate reader from Thermo Scientific. To test samples by using ORAC, compounds are dissolved into water-based NaH2PO4 buffer.

Solubility in water = type: physicochemical

Structure (SMILES)	influence of hydrotrope on the capacity of antioxidant compounds [1]	solubility in water (Solubility in water)
Cn1c(=O)c2c(ncn2C)n(C)c1=O [caffeine]	no influence	–
O=C(O)[C@H]1O[C@@H](Oc2cc3oc(-c4ccccc4)cc(=O)c3c(O)c2O)[C@H](O)[C@@H](O)[C@@H]1O [baicalin]	–	very low
NC(=O)c1cccnc1 [nicotinamide]	no influence	–
